pIC50: −log10 of the molar value.
Assays:
Test in all cases: cells
NCI-H2347 = assay type: functional, cell-based, Homo sapiens; conditions: Homo sapiens, NCI-H2347;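 further: growth inhibition of the cell line, read out with a cell viability assay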
Description: SANGER: Inhibition of human NCI-H2347 cell growth in a cell viability assay.

K5 = assay type: functional, cell-based, Homo sapiens; conditions: Homo sapiens, K5
Description: SANGER: Inhibition of human K5 cell growth in a cell viability assay.

HCC1395 = assay type: functional, cell-based, Homo sapiens; conditions: Homo sapiens, HCC1395;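 further: growth inhibition of HCC1395 cells, read out by a cell viability assay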
Description: SANGER: Inhibition of human HCC1395 cell growth in a cell viability assay.

SNU-387 = assay type: functional, cell-based, Homo sapiens; conditions: Homo sapiens, SNU-387
Description: SANGER: Inhibition of human SNU-387 cell growth in a cell viability assay.

JEG-3 = assay type: functional, cell-based, Homo sapiens; conditions: Homo sapiens, JEG-3;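 further: growth inhibition of human JEG-3 cells, read out with a cell viability assay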
Description: SANGER: Inhibition of human JEG-3 cell growth in a cell viability assay.

CHL-1 = assay type: functional, cell-based, Homo sapiens; conditions: Homo sapiens, CHL-1;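 further: cell growth inhibition, read out with a cell viability assay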
Description: SANGER: Inhibition of human CHL-1 cell growth in a cell viability assay.

CP50-MEL-B = assay type: functional, cell-based, Homo sapiens; conditions: Homo sapiens, CP50-MEL-B;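 further: growth inhibition of the human cell line, measured with a cell viability read-out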
Description: SANGER: Inhibition of human CP50-MEL-B cell growth in a cell viability assay.

D-263MG = assay type: functional, cell-based, Homo sapiens; conditions: Homo sapiens, D-263MG
Description: SANGER: Inhibition of human D-263MG cell growth in a cell viability assay.

CAL-72 = assay type: functional, cell-based, Homo sapiens; conditions: Homo sapiens, CAL-72;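 further: cell viability assay measuring inhibition of proliferation in the CAL-72 cell line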
Description: SANGER: Inhibition of human CAL-72 cell growth in a cell viability assay.

5637 = assay type: functional, cell-based, Homo sapiens; conditions: Homo sapiens
Description: SANGER: Inhibition of human 5637 cell growth in a cell viability assay.

ONS-76 = assay type: functional, cell-based, Homo sapiens; conditions: Homo sapiens, ONS-76;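 further: growth inhibition of human ONS-76 cells, read out with a cell viability assay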
Description: SANGER: Inhibition of human ONS-76 cell growth in a cell viability assay.

HuTu80 = assay type: functional, cell-based, Homo sapiens, HUTU-80; conditions: Homo sapiens, HuTu80;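 further: growth inhibition of HuTu80 human cells, determined with a cell viability readout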
Description: SANGER: Inhibition of human HUTU-80 cell growth in a cell viability assay.

KU812 cell line = assay type: functional, cell-based; conditions: Homo sapiens;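 further: growth inhibition of KU812 cells, read out with a cell viability assay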
Description: SANGER: Inhibition of human KU812 cell growth in a cell viability assay.

IA-LM = assay type: functional, cell-based, Homo sapiens; conditions: Homo sapiens, IA-LM;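 further: cell viability assay measuring growth inhibition of human IA-LM cells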
Description: SANGER: Inhibition of human IA-LM cell growth in a cell viability assay.

BB30-HNC = assay type: functional, cell-based, Homo sapiens; conditions: Homo sapiens, BB30-HNC;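 further: growth inhibition of the cultured cell line, read out by a cell viability assay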
Description: SANGER: Inhibition of human BB30-HNC cell growth in a cell viability assay.

TK-10 = assay type: functional, cell-based, Homo sapiens; conditions: Homo sapiens, TK-10;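 further: growth inhibition of TK-10 cells, read out in a cell viability assay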
Description: SANGER: Inhibition of human TK10 cell growth in a cell viability assay.

NCI-H2052 = assay type: functional, cell-based, Homo sapiens; conditions: Homo sapiens, NCI-H2052;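 further: growth inhibition of NCI-H2052 cells, read out with a cell viability assay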
Description: SANGER: Inhibition of human NCI-H2052 cell growth in a cell viability assay.

SKG-IIIa = assay type: functional, cell-based, Homo sapiens; conditions: Homo sapiens, SKG-IIIa;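 further: cell growth inhibition, read out with a cell viability assay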
Description: SANGER: Inhibition of human SKG-IIIa cell growth in a cell viability assay.

NCI-H596 = assay type: functional, cell-based, Homo sapiens; conditions: Homo sapiens, NCI-H596;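 further: growth inhibition of NCI-H596 cells, read out with a cell viability assay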
Description: SANGER: Inhibition of human NCI-H596 cell growth in a cell viability assay.

TE-10 = assay type: functional, cell-based, Homo sapiens; conditions: Homo sapiens, TE-10;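 further: growth inhibition of TE-10 cells, measured by a cell viability assay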
Description: SANGER: Inhibition of human TE-10 cell growth in a cell viability assay.

NCI-H1755 = assay type: functional, cell-based, Homo sapiens; conditions: Homo sapiens, NCI-H1755;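 further: cell viability readout used to measure growth inhibition of NCI-H1755 cells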
Description: SANGER: Inhibition of human NCI-H1755 cell growth in a cell viability assay.

RPMI-8866 = assay type: functional, cell-based; conditions: Homo sapiens
Description: SANGER: Inhibition of human RPMI-8866 cell growth in a cell viability assay.

P12-Ichikawa = assay type: functional, cell-based; conditions: Homo sapiens
NCI-H747 = assay type: functional, cell-based; conditions: Homo sapiens;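 further: growth inhibition of human NCI-H747 cells, read out by a cell viability assay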
Description: SANGER: Inhibition of human NCI-H747 cell growth in a cell viability assay.

IGROV-1 = assay type: functional, cell-based, Homo sapiens; conditions: Homo sapiens, IGROV-1;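 further: reduction of IGROV-1 cell growth, read out with a viability assay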
Description: SANGER: Inhibition of human IGROV-1 cell growth in a cell viability assay.

BXPC-3 = assay type: functional, cell-based, Homo sapiens; conditions: Homo sapiens, BXPC-3;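 further: growth inhibition of human BxPC-3 cells, read out by a cell viability assay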
Description: SANGER: Inhibition of human BxPC-3 cell growth in a cell viability assay.

OAW-42 = assay type: functional, cell-based, Homo sapiens; conditions: Homo sapiens, OAW-42;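 further: growth inhibition of OAW-42 cells, read out with a cell viability assay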
Description: SANGER: Inhibition of human OAW-42 cell growth in a cell viability assay.

HuCCT-1 = assay type: functional, cell-based, Homo sapiens, HuCCT1; conditions: Homo sapiens, HuCCT-1;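 further: growth inhibition of HuCCT-1 cells, read out by a cell viability assay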
Description: SANGER: Inhibition of human HuCCT1 cell growth in a cell viability assay.

CTB-1 = assay type: functional, cell-based; conditions: Homo sapiens
Description: SANGER: Inhibition of human CTB-1 cell growth in a cell viability assay.

MHH-PREB-1 = assay type: functional, cell-based; conditions: Homo sapiens;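 further: cell viability assay measuring inhibition of proliferation of human MHH-PREB-1 cells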
Description: SANGER: Inhibition of human MHH-PREB-1 cell growth in a cell viability assay.

HT-144 = assay type: functional, cell-based, Homo sapiens; conditions: Homo sapiens, HT-144
Description: SANGER: Inhibition of human HT-144 cell growth in a cell viability assay.

HL-60 = assay type: functional, cell-based; conditions: Homo sapiens;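 further: growth inhibition of human HL-60 cells, read out with a cell viability assay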
Description: SANGER: Inhibition of human HL-60 cell growth in a cell viability assay.

HCC1187 = assay type: functional, cell-based, Homo sapiens; conditions: Homo sapiens, HCC1187;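 further: growth inhibition of HCC1187 cells, read out with a cell viability assay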
Description: SANGER: Inhibition of human HCC1187 cell growth in a cell viability assay.

HCE-4 = assay type: functional, cell-based, Homo sapiens; conditions: Homo sapiens, HCE-4;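 further: cell viability assay measuring inhibition of growth in the human HCE-4 cell line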
Description: SANGER: Inhibition of human HCE-4 cell growth in a cell viability assay.

NCI-H661 = assay type: functional, cell-based, Homo sapiens; conditions: Homo sapiens, NCI-H661;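 further: cell viability assay read-out, IC50 being the concentration that inhibits growth of the cells by half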
Description: SANGER: Inhibition of human NCI-H661 cell growth in a cell viability assay.

MPP-89 = assay type: functional, cell-based, Homo sapiens; conditions: Homo sapiens, MPP-89;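 further: growth inhibition of human MPP-89 cells, read out with a cell viability assay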
Description: SANGER: Inhibition of human MPP-89 cell growth in a cell viability assay.

HOS = assay type: functional, cell-based, Homo sapiens; conditions: Homo sapiens, HOS;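 further: growth inhibition of human HOS cells, read out with a cell viability assay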
Description: SANGER: Inhibition of human HOS cell growth in a cell viability assay.

NCI-H720 = assay type: functional, cell-based; conditions: Homo sapiens;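 further: growth inhibition of human NCI-H720 cells determined by a cell viability assay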
Description: SANGER: Inhibition of human NCI-H720 cell growth in a cell viability assay.

8-MG-BA = assay type: functional, cell-based, Homo sapiens; conditions: Homo sapiens, 8-MG-BA;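 further: growth inhibition of 8-MG-BA cells, read out with a cell viability assay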
Description: SANGER: Inhibition of human 8-MG-BA cell growth in a cell viability assay.

GAK = assay type: functional, cell-based, Homo sapiens; conditions: Homo sapiens, GAK;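 further: cell growth inhibition read out by a cell viability assay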
Description: SANGER: Inhibition of human GAK cell growth in a cell viability assay.

KG-1 = assay type: functional, cell-based; conditions: Homo sapiens;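 further: growth inhibition of KG-1 cells, read out by a cell viability assay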
Description: SANGER: Inhibition of human KG-1 cell growth in a cell viability assay.

MDA-MB-157 = assay type: functional, cell-based, Homo sapiens; conditions: Homo sapiens, MDA-MB-157
Description: SANGER: Inhibition of human MDA-MB-157 cell growth in a cell viability assay.

SCC-25 = assay type: functional, cell-based, Homo sapiens; conditions: Homo sapiens, SCC-25;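 further: growth inhibition of SCC-25 cells, measured with a cell viability assay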
Description: SANGER: Inhibition of human SCC-25 cell growth in a cell viability assay.

A 172 = assay type: functional, cell-based, Homo sapiens; conditions: Homo sapiens, A 172;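 further: growth inhibition of A172 cells, measured with a cell viability readout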
Description: SANGER: Inhibition of human A172 cell growth in a cell viability assay.

SBC-5 = assay type: functional, cell-based, Homo sapiens; conditions: Homo sapiens, SBC-5;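 further: cell viability assay read-out, IC50 is the concentration that inhibits growth of the cells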
Description: SANGER: Inhibition of human SBC-5 cell growth in a cell viability assay.

GI-1 = assay type: functional, cell-based, Homo sapiens; conditions: Homo sapiens, GI-1;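 further: growth inhibition of human GI-1 cells, measured with a cell viability readout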
Description: SANGER: Inhibition of human GI-1 cell growth in a cell viability assay.

BFTC-905 = assay type: functional, cell-based, Homo sapiens; conditions: Homo sapiens, BFTC-905
Description: SANGER: Inhibition of human BFTC-905 cell growth in a cell viability assay.

SK-MEL-24 = assay type: functional, cell-based; conditions: Homo sapiens;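 further: growth inhibition read out by a cell viability assay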
Description: SANGER: Inhibition of human SK-MEL-24 cell growth in a cell viability assay.

NCI-H1651 = assay type: functional, cell-based, Homo sapiens; conditions: Homo sapiens, NCI-H1651;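 further: Read-out is a cell viability assay, with IC50 expressing inhibition of NCI-H1651 cell growth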
Description: SANGER: Inhibition of human NCI-H1651 cell growth in a cell viability assay.

T-24 = assay type: functional, cell-based, Homo sapiens; conditions: Homo sapiens, T-24;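 further: growth inhibition of T-24 cells, read out with a cell viability assay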
Description: SANGER: Inhibition of human T-24 cell growth in a cell viability assay.

NCI-H23 = assay type: functional, cell-based, Homo sapiens; conditions: Homo sapiens, NCI-H23
Description: SANGER: Inhibition of human NCI-H23 cell growth in a cell viability assay.

`C=CCNC1=C2C[C@@H](C)C[C@H](OC)[C@H](O)[C@@H](C)/C=C(\C)[C@H](OC(N)=O)[C@@H](OC)/C=C\C=C(/C)C(=O)NC(=CC1=O)C2=O` [TANESPIMYCIN] was tested, and the pIC50 (NCI-H2347) was 6.83, the pIC50 (K5) was 6.61 and the pIC50 (HCC1395) was < 6.00. For the same compound, the pIC50 (SNU-387) was < 6.00, the pIC50 (JEG-3) was 6.73 and the pIC50 (CHL-1) was 7.65. For the same compound, the pIC50 (CP50-MEL-B) was 7.46, the pIC50 (D-263MG) was 7.56 and the pIC50 (CAL-72) was < 6.00. For the same compound, the pIC50 5637 was 7.24, the pIC50 (ONS-76) was < 6.00 and the pIC50 (HuTu80) was < 6.00. The pIC50 (KU812 cell line) was 6.47, the pIC50 (IA-LM) was < 6.00 and the pIC50 (BB30-HNC) was 6.76. For the same compound, the pIC50 (TK-10) was 6.64, the pIC50 (NCI-H2052) was < 6.00 and the pIC50 (SKG-IIIa) was 7.30. The pIC50 (NCI-H596) was < 6.00, the pIC50 (TE-10) was 6.38 and the pIC50 (NCI-H1755) was 7.20. The pIC50 (RPMI-8866) was < 6.00, the pIC50 (P12-Ichikawa) was < 6.00 and the pIC50 (NCI-H747) was 6.62. The pIC50 (IGROV-1) was 6.73, the pIC50 (BXPC-3) was 6.80 and the pIC50 (OAW-42) was < 6.00. For the same compound, the pIC50 (HuCCT-1) was 6.49, the pIC50 (CTB-1) was 6.48 and the pIC50 (MHH-PREB-1) was < 6.00. The pIC50 (HT-144) was 7.51, the pIC50 (HL-60) was < 6.00 and the pIC50 (HCC1187) was < 6.00. The pIC50 (HCE-4) was 6.32, the pIC50 (NCI-H661) was 6.21 and the pIC50 (MPP-89) was 6.85. It also gave a pIC50 (HOS) of 6.38, a pIC50 (NCI-H720) of 7.59 and a pIC50 (8-MG-BA) of 7.02. For the same compound, the pIC50 (GAK) was 6.87, the pIC50 (KG-1) was < 6.00 and the pIC50 (MDA-MB-157) was 6.74. It also gave a pIC50 (SCC-25) of 6.61, a pIC50 (A 172) of 6.68 and a pIC50 (SBC-5) of 6.70. For the same compound, the pIC50 (GI-1) was 6.84, the pIC50 (BFTC-905) was 6.50 and the pIC50 (SK-MEL-24) was 6.86. The pIC50 (NCI-H1651) was 6.15, the pIC50 (T-24) was 6.48 and the pIC50 (NCI-H23) was 7.57.
`C[C@]1(O)C[C@@H](c2nc(-c3ccc4ccc(-c5ccccc5)nc4c3)c3c(N)nccn32)C1` [LINSITINIB] was tested, and the pIC50 (NCI-H2347) was < 5.59, the pIC50 (K5) was < 5.59 and the pIC50 (HCC1395) was < 5.59. The pIC50 (SNU-387) was 6.00, the pIC50 (JEG-3) was < 5.59 and the pIC50 (CHL-1) was < 5.59. For the same compound, the pIC50 (CP50-MEL-B) was < 5.59, the pIC50 (D-263MG) was < 5.59 and the pIC50 (CAL-72) was < 5.59. The pIC50 5637 was < 5.59, the pIC50 (ONS-76) was < 5.59 and the pIC50 (HuTu80) was < 5.59. The pIC50 (KU812 cell line) was < 5.59, the pIC50 (IA-LM) was < 5.59 and the pIC50 (BB30-HNC) was < 5.59. The pIC50 (TK-10) was < 5.59, the pIC50 (NCI-H2052) was < 5.59 and the pIC50 (SKG-IIIa) was < 5.59. For the same compound, the pIC50 (NCI-H596) was < 5.59, the pIC50 (TE-10) was < 5.59 and the pIC50 (NCI-H1755) was < 5.59. The pIC50 (RPMI-8866) was < 5.59, the pIC50 (P12-Ichikawa) was < 5.59 and the pIC50 (NCI-H747) was < 5.59. For the same compound, the pIC50 (IGROV-1) was 5.94, the pIC50 (BXPC-3) was < 5.59 and the pIC50 (OAW-42) was < 5.59. For the same compound, the pIC50 (HuCCT-1) was < 5.59, the pIC50 (CTB-1) was < 5.59 and the pIC50 (MHH-PREB-1) was < 5.59. The pIC50 (HT-144) was 6.58, the pIC50 (HL-60) was 5.78 and the pIC50 (HCC1187) was < 5.59. For the same compound, the pIC50 (HCE-4) was < 5.59, the pIC50 (NCI-H661) was < 5.59 and the pIC50 (MPP-89) was < 5.59. For the same compound, the pIC50 (HOS) was < 5.59, the pIC50 (NCI-H720) was < 5.59 and the pIC50 (8-MG-BA) was < 5.59. The pIC50 (GAK) was < 5.59, the pIC50 (KG-1) was < 5.59 and the pIC50 (MDA-MB-157) was < 5.59. For the same compound, the pIC50 (SCC-25) was < 5.59, the pIC50 (A 172) was < 5.59 and the pIC50 (SBC-5) was < 5.59. The pIC50 (GI-1) was < 5.59, the pIC50 (BFTC-905) was 6.33 and the pIC50 (SK-MEL-24) was < 5.59. For the same compound, the pIC50 (NCI-H1651) was < 5.59, the pIC50 (T-24) was < 5.59 and the pIC50 (NCI-H23) was < 5.59.

Source: ChEMBL document CHEMBL1201861, “Genomics of Drug Sensitity in Cancer screening data, Wellcome Trust Sanger Institute”
